Laboratory results: ChEMBL document CHEMBL4613308, “Screen of Unfocused Libraries Identified Compounds with Direct or Synergistic Antibacterial Activity” (ACS Med Chem Lett, 2020)
Converted amounts (≈) assume the structure as drawn.

Experiments:
Pseudomonas aeruginosa [1] = test: Synergistic antibacterial activity against Pseudomonas aeruginosa ATCC 27853 assessed as fractional inhibitory concentration index in presence of colistin by Checkerboard assay; type: functional
Pseudomonas aeruginosa [2] = test: Antibacterial activity against Pseudomonas aeruginosa ATCC 27853 assessed as bacterial growth inhibition by agar diffusion assay; type: functional
Pseudomonas aeruginosa [3] = test: Synergistic antibacterial activity against Pseudomonas aeruginosa ATCC 27853 in presence of 0.5 times MIC of colistin by microdilution broth method; type: functional
Klebsiella pneumoniae [4] = test: Synergistic antibacterial activity against colistin-resistant Klebsiella pneumoniae SI-081R clinical isolate in presence of 2 ug/ml colistin by microdilution broth method (reference value: 256 ug/ml); type: functional
Klebsiella pneumoniae [5] = test: Potentiation of colistin-induced antibacterial activity against Klebsiella pneumoniae ATCC 13833 assessed as fold reduction in colistin MIC by microdilution broth method relative to colistin MIC; type: functional
Pseudomonas aeruginosa [6] = test: Potentiation of colistin-induced antibacterial activity against Pseudomonas aeruginosa ATCC 27853 assessed as fold reduction in colistin MIC by microdilution broth method relative to colistin MIC; type: functional
Escherichia coli [7] = test: Synergistic antibacterial activity against Escherichia coli CCUG in presence of 0.5 times MIC of colistin by microdilution broth method; type: functional
Acinetobacter baumannii [8] = test: Synergistic antibacterial activity against Acinetobacter baumannii ATCC 17978 assessed as fractional inhibitory concentration index in presence of colistin by Checkerboard assay; type: functional
Escherichia coli [9] = test: Antibacterial activity against Escherichia coli CCUG assessed as bacterial growth inhibition by agar diffusion assay; type: functional
Acinetobacter baumannii [10] = test: Potentiation of colistin-induced antibacterial activity against Acinetobacter baumannii ATCC 17978 assessed as fold reduction in colistin MIC by microdilution broth method relative to colistin MIC; type: functional
Klebsiella pneumoniae [11] = test: Synergistic antibacterial activity against colistin-resistant Klebsiella pneumoniae SI-004Bo clinical isolate in presence of 2 ug/ml colistin by microdilution broth method (reference value: 64 ug/ml); type: functional
Klebsiella pneumoniae [12] = test: Antibacterial activity against Klebsiella pneumoniae ATCC 13833 assessed as bacterial growth inhibition by agar diffusion assay; type: functional
Acinetobacter baumannii [13] = test: Synergistic antibacterial activity against multidrug-resistant Acinetobacter baumannii N50 assessed as fractional inhibitory concentration index in presence of colistin by checkerboard assay; type: functional
Acinetobacter baumannii [14] = test: Synergistic antibacterial activity against multidrug-resistant Acinetobacter baumannii N50 in presence of 2 ug/ml colistin by microdilution broth method; type: functional
Klebsiella pneumoniae [15] = test: Synergistic antibacterial activity against Klebsiella pneumoniae ATCC 13833 in presence of 0.5 times MIC of colistin by microdilution broth method; type: functional
Acinetobacter baumannii [16] = test: Antibacterial activity against Acinetobacter baumannii ATCC 17978 assessed as bacterial growth inhibition by agar diffusion assay; type: functional
HeLa = test: Cytotoxicity against human HeLa cells assessed as reduction in cell viability assay by CellTox-Green assay; type: cell-based
Escherichia coli [17] = test: Potentiation of colistin-induced antibacterial activity against Escherichia coli CCUG assessed as fold reduction in colistin MIC in by microdilution broth method relative to colistin MIC; type: functional
Acinetobacter baumannii [18] = test: Synergistic antibacterial activity against Acinetobacter baumannii ATCC 17978 in presence of 0.5 times MIC of colistin by microdilution broth method; type: functional

## CCCCCc1cc(O)cc(OCCCCCCCCCCC(=O)NCCO)c1
Pseudomonas aeruginosa [1]
  fractional inhibitory concentration index (FICI): 0.41
Pseudomonas aeruginosa [2]
  MIC: > 512 µg/mL
Pseudomonas aeruginosa [3]
  MIC: 2 µg/mL
Klebsiella pneumoniae [4]
  MIC: > 64 µg/mL
Klebsiella pneumoniae [5]
  log2FC: 7
Pseudomonas aeruginosa [6]
  log2FC: 8
Escherichia coli [7]
  MIC: 8 µg/mL
Acinetobacter baumannii [8]
  fractional inhibitory concentration index (FICI): 0.29
Escherichia coli [9]
  MIC: > 512 µg/mL
Acinetobacter baumannii [10]
  log2FC: 8
Klebsiella pneumoniae [11]
  MIC: > 64 µg/mL
Klebsiella pneumoniae [12]
  MIC: > 512 µg/mL
Acinetobacter baumannii [13]
  fractional inhibitory concentration index (FICI): 0.062
Acinetobacter baumannii [14]
  MIC: 2 µg/mL
Klebsiella pneumoniae [15]
  MIC: 4 µg/mL
Acinetobacter baumannii [16]
  MIC: > 512 µg/mL
HeLa
  IC50: 25 µg/mL (≈ 61.3 µM)
Escherichia coli [17]
  log2FC: 6
Acinetobacter baumannii [18]
  MIC: 2 µg/mL
